SMILES strings stand for the structures. Some results are limits rather than exact numbers.

In one experiment the target is T1, IRAK4 (Homo sapiens, UniProt Q9NWZ3).
T1 construct: endogenous in cells; host or cells: OCI-LY10
T1 sequence (Q9NWZ3 1-460): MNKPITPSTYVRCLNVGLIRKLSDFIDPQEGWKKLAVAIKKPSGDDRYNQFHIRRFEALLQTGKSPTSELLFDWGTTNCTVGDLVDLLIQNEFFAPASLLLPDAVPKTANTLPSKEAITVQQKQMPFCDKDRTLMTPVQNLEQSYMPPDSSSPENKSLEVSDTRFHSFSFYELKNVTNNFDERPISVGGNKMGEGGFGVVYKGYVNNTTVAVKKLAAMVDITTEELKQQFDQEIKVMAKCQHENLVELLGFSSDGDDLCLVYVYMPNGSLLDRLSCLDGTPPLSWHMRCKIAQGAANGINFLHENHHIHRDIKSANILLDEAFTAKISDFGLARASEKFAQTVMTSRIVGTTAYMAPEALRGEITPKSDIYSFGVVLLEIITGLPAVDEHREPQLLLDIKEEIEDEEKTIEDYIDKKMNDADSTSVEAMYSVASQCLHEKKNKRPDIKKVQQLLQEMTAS
Description: IRAK4 MSD Degradation in OCI-LY10. In kind it is cell-based. Particulars: OCI-LY10 cells, 4 hrs incubation, read-out: IRAK4 degradation in OCI-LY10 at 4 hrs: DC50. In a few lines: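 OCI-LY10 cells treated with 8-dose, 1:3 dilution series (top final 1 to 10 μM) for 4 to 24 h at 37 °C, 5% CO2. Lysate IRAK4 quantified by MSD sandwich immunoassay (mouse 2H9 capture, rabbit Y279 detection, SULFO-TAG anti-rabbit); DC50 from three-parameter logistic fit.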
In general, DC50 refers to the concentration giving 50% degradation. On to `CN(C[C@H]1CC[C@H](n2cc3cc(NC(=O)c4cccc(C(C)(C)C)n4)c(C(C)(C)O)cc3n2)CC1)C1CCN(Cc2cccc3c2n(C)c(=O)n3C2CCC(=O)NC2=O)CC1` (stereo partly shown) [I-235], for which the DC50 is under 50 nM. On the same count and under the same terms, under `Cn1c(=O)n(C2CCC(=O)NC2=O)c2cccc(CCN3CC4(CCN(C(=O)[C@H]5CC[C@H](n6cc7cc(NC(=O)c8cccc(C(F)(F)F)n8)c(C(C)(C)O)cc7n6)CC5)CC4)C3)c21` (stereo partly shown) [I-239] stands under 50 nM; under `COc1cc2nn([C@H]3CC[C@H](CN4CCC(CCc5cccc6c5n(C)c(=O)n6C5CCC(=O)NC5=O)CC4)CC3)cc2cc1NC(=O)c1cccc(C(F)(F)F)n1` (stereo partly shown) [I-242], under 50 nM; under `COc1cc2nn([C@H]3CC[C@H](CN4CCC(c5cccc6c5n(C)c(=O)n6C5CCC(=O)N(C)C5=O)CC4)CC3)cc2cc1NC(=O)c1cccc(C(F)(F)F)n1` (stereo partly shown) [I-257], 500 to 1000 nM. Same read-out and setting: under `COc1cc2nn([C@H]3CC[C@H](CN4CCC(c5cccc6c5n(C)c(=O)n6C5CCC(=O)NC5=O)CC4)CC3)cc2cc1NC(=O)c1cccc(C(C)(C)O)n1` (stereo partly shown) [I-258] stands under 50 nM.

On to `COc1cc2nn([C@H]3CC[C@H](CN4CCC5(CC4)CC(CCc4cccc6c4n(C)c(=O)n6C4CCC(=O)NC4=O)C5)CC3)cc2cc1NC(=O)c1cccc(C(F)(F)F)n1` (stereo partly shown) [I-259], for which the DC50 lay within 50 to 100 nM. Same read-out and setting: the result for `COc1cc2nn([C@H]3CC[C@H](CN4CC(c5ccc6c(c5)n(C)c(=O)n6C5CCC(=O)NC5=O)C4)CC3)cc2cc1NC(=O)c1cccc(C(F)(F)F)n1` (stereo partly shown) [I-260] reads under 50 nM; that for `Cn1c(=O)n(C2CCC(=O)NC2=O)c2ccc(C3CCN(C[C@H]4CC[C@H](n5cc6cc(NC(=O)c7cccc(C(F)(F)F)n7)c(C(F)F)cc6n5)CC4)CC3)cc21` (stereo partly shown) [I-261], under 50 nM. The same measure, in the same setting: under `COc1cc2nn([C@H]3CC[C@H](CN4CCC(c5ccc6c(c5)n(C)c(=O)n6C5CCC(=O)NC5=O)CC4)CC3)cc2cc1NC(=O)c1cccc(C(F)(F)F)n1` (stereo partly shown) [I-262] stands under 50 nM; under `Cn1c(=O)n(C2CCC(=O)NC2=O)c2cccc(C3CCN(C[C@H]4CC[C@H](n5cc6cc(NC(=O)c7cccc(C(F)(F)F)n7)c(C(F)F)cc6n5)CC4)CC3)c21` (stereo partly shown) [I-263], under 50 nM; under `Cn1c(=O)n(C2CCC(=O)NC2=O)c2ccc(C3CN(C[C@H]4CC[C@H](n5cc6cc(NC(=O)c7cccc(C(F)(F)F)n7)c(C(F)F)cc6n5)CC4)C3)cc21` (stereo partly shown) [I-264], under 50 nM. With `Cn1c(=O)n(C2CCC(=O)NC2=O)c2cccc(CCC3CCN(C[C@H]4CC[C@H](n5cc6cc(NC(=O)c7cccc(C(F)(F)F)n7)c(C(C)(C)O)cc6n5)CC4)CC3)c21` (stereo partly shown) [I-265], the DC50 is under 50 nM.

Consider `Cn1c(=O)n(C2CCC(=O)NC2=O)c2cccc(CCOC3CCN(C[C@H]4CC[C@H](n5cc6cc(NC(=O)c7cccc(C(F)(F)F)n7)c(C(F)F)cc6n5)CC4)CC3)c21` (stereo partly shown) [I-266], for which the DC50 lay within 50 to 100 nM. On the same count and under the same terms, under `Cn1c(=O)n(C2CCC(=O)NC2=O)c2cccc(CCOC3CCN(C[C@H]4CC[C@H](n5cc6cc(NC(=O)c7cccc(C(F)(F)F)n7)c(C(C)(C)O)cc6n5)CC4)CC3)c21` (stereo partly shown) [I-267] stands under 50 nM. Same read-out and setting: under `Cc1cccc(C(=O)Nc2cc3cn([C@H]4CC[C@H](CN5CCC6(CC5)CC(CCc5cccc7c5n(C)c(=O)n7C5CCC(=O)NC5=O)C6)CC4)nc3cc2C(C)(C)O)n1` (stereo partly shown) [I-276] stands under 50 nM; under `Cn1c(=O)n(C2CCC(=O)NC2=O)c2cccc(CCC3CC4(CCN(C[C@H]5CC[C@H](n6cc7cc(NC(=O)c8ccccn8)c(C(F)F)cc7n6)CC5)CC4)C3)c21` (stereo partly shown) [I-277], under 50 nM. Still for that read-out and setting: the result for `CN(C[C@H]1CC[C@H](n2cc3cc(NC(=O)c4cccc(C(F)(F)F)n4)c(C(F)F)cc3n2)CC1)C1CCC2(CC1)CC(Cc1cccc3c1n(C)c(=O)n3C1CCC(=O)NC1=O)C2` (stereo partly shown) [I-278] reads 50 to 100 nM; that for `CN(C[C@H]1CC[C@H](n2cc3cc(NC(=O)c4cccc(C(F)(F)F)n4)c(C(C)(C)O)cc3n2)CC1)C1CCN(Cc2ccc3c(c2)C(=O)N(C)C3C2CCC(=O)NC2=O)CC1` (stereo partly shown) [I-279], under 50 nM.

For `COc1cc2nn([C@H]3CC[C@H](CN4C[C@H]5C[C@@H]4CN5c4cccc5c4n(C)c(=O)n5C4CCC(=O)NC4=O)CC3)cc2cc1NC(=O)c1cccc(C(F)(F)F)n1` (stereo partly shown) [I-281], the DC50 is under 50 nM. On the same count and under the same terms, the result for `Cn1c(=O)n(C2CCC(=O)NC2=O)c2cccc(N3C[C@H]4C[C@@H]3CN4C[C@H]3CC[C@H](n4cc5cc(NC(=O)c6cccc(C(F)(F)F)n6)c(C(C)(C)O)cc5n4)CC3)c21` (stereo partly shown) [I-282] reads under 50 nM. On the same count and under the same terms, under `COc1cc2nn([C@H]3CC[C@H](CN(C)C4CCN(c5cccc6c5n(C)c(=O)n6C5CCC(=O)N(C)C5=O)CC4)CC3)cc2cc1NC(=O)c1cccc(C(F)(F)F)n1` (stereo partly shown) [I-283] stands 500 to 1000 nM; under `COc1cc2nn([C@H]3CC[C@H](CN4C[C@H]5CC[C@@H](C4)N5c4cccc5c4n(C)c(=O)n5C4CCC(=O)NC4=O)CC3)cc2cc1NC(=O)c1cccc(C(F)(F)F)n1` (stereo partly shown) [I-284], 50 to 100 nM.

On to `Cn1c(=O)n(C2CCC(=O)NC2=O)c2cccc(N3[C@@H]4CC[C@H]3CN(C[C@H]3CC[C@H](n5cc6cc(NC(=O)c7cccc(C(F)(F)F)n7)c(C(C)(C)O)cc6n5)CC3)C4)c21` (stereo partly shown) [I-285], for which the DC50 lay in the range of 50 to 100 nM.

The same experiment, now with this note: OCI-LY10 cells, 24 hrs incubation, read-out: IRAK4 degradation in OCI-LY10 at 24 hrs: DC50.
With `CC(C)(O)c1cc2nn([C@H]3CC[C@H](CN4CCC(O[C@H]5C[C@H](Nc6cccc7c6C(=O)N(C6CCC(=O)NC6=O)C7=O)C5)CC4)CC3)cc2cc1NC(=O)c1cccc(C(C)(C)F)n1` (stereo partly shown) [I-234], the DC50 lay in the range of 50 to 100 nM. Regarding `CN(C[C@H]1CC[C@H](n2cc3cc(NC(=O)c4cccc(C(C)(C)C)n4)c(C(C)(C)O)cc3n2)CC1)[C@H]1CC[C@H](Nc2cccc3c2C(=O)N(C2CCC(=O)NC2=O)C3=O)CC1` (stereo partly shown) [I-236], the DC50 lay in the range of 50 to 100 nM. For `CN(C[C@H]1CC[C@H](n2cc3cc(NC(=O)c4cccc(C(F)(F)F)n4)c(C(C)(C)O)cc3n2)CC1)C1CCC2(CC1)CC(Nc1cccc3c1C(=O)N(C1CCC(=O)NC1=O)C3=O)C2` (stereo partly shown) [I-238], the DC50 was under 50 nM. As for `CC(C)(C)c1cccc(C(=O)Nc2cc3cn([C@H]4CC[C@H](CN5CCC6(CC5)CC(Nc5cccc7c5C(=O)N(C5CCC(=O)NC5=O)C7=O)C6)CC4)nc3cc2C(C)(C)O)n1` (stereo partly shown) [I-249], the DC50 is 50 to 100 nM.

With `CC(C)(O)c1cc2nn([C@H]3CC[C@H](CN4CCC5(CC4)CC(CCNc4cccc6c4C(=O)N(C4CCC(=O)NC4=O)C6=O)C5)CC3)cc2cc1NC(=O)c1cccc(C(C)(F)F)n1` (stereo partly shown) [I-250], the DC50 fell in the range of 50 to 100 nM. Still for that read-out and setting: under `CC(C)(O)c1cc2nn([C@H]3CC[C@H](CN4CCC5(CC4)CC(CNc4cccc6c4C(=O)N(C4CCC(=O)NC4=O)C6=O)C5)CC3)cc2cc1NC(=O)c1cccc(C(C)(C)F)n1` (stereo partly shown) [I-251] stands 50 to 100 nM; under `COc1cc2nn([C@H]3CC[C@H](CN4CC5(CC(CCNc6cccc7c6C(=O)N([C@@H]6CCC(=O)NC6=O)C7=O)C5)C4)CC3)cc2cc1NC(=O)c1cccc(C(C)(F)F)n1` [I-254, 6-(1,1-Difluoroethyl)-N-[2-[4-[[6-[2-[[2-[(3R)-2,6-dioxo-3-piperidyl]-1,3-dioxo-isoindolin-4-yl]amino]ethyl]-2-azaspiro[3.3]heptan-2-yl]methyl]cyclohexyl]-6-methoxy-indazol-5-yl]pyridine-2-carboxamide], under 50 nM.

`COc1cc2nn([C@H]3CC[C@H](CN4CC5(CC(CCNc6cccc7c6C(=O)N([C@H]6CCC(=O)NC6=O)C7=O)C5)C4)CC3)cc2cc1NC(=O)c1cccc(C(C)(F)F)n1` [I-255, 6-(1,1-Difluoroethyl)-N-[2-[4-[[6-[2-[[2-[(3S)-2,6-dioxo-3-piperidyl]-1,3-dioxo-isoindolin-4-yl]amino]ethyl]-2-azaspiro[3.3]heptan-2-yl]methyl]cyclohexyl]-6-methoxy-indazol-5-yl]pyridine-2-carboxamide]: the half-maximal degradation concentration (DC50) is under 50 nM.

As to `CN(CCCO[C@H]1C[C@H](Nc2cccc3c2C(=O)N(C2CCC(=O)NC2=O)C3=O)C1)C[C@@]1(C)Cc2cc(NC(=O)c3cccc(C(F)(F)F)n3)c(N3CCOCC3)cc2O1` (stereo partly drawn) [I-256, N-((2R)-2-(((3-((1r,3R)-3-((2-(2,6-Dioxopiperidin-3-yl)-1,3-dioxoisoindolin-4-yl)amino)cyclobutoxy)propyl)(methyl)amino)methyl)-2-methyl-6-morpholino-2,3-dihydrobenzofuran-5-yl)-6-(trifluoromethyl)picolinamide], the DC50 was in the range of 500 to 1000 nM. Same read-out and setting: under `COc1cc2nn([C@H]3CC[C@H](CN(C)[C@H]4CC[C@H](CNc5cccc6c5C(=O)N(C5CCC(=O)NC5=O)C6=O)CC4)CC3)cc2cc1NC(=O)c1cccc(C)n1` (stereo partly shown) [I-268] stands 50 to 100 nM. Same read-out and setting: under `COc1cc2nn([C@H]3CC[C@H](CN4CCC5(CC4)CC(CNc4cccc6c4C(=O)N(C4CCC(=O)NC4=O)C6=O)C5)CC3)cc2cc1NC(=O)c1ccccn1` (stereo partly shown) [I-273] stands 50 to 100 nM. As for `COc1cc2nn([C@H]3CC[C@H](CN4CC5(CC(CNc6cccc7c6C(=O)N(C6CCC(=O)NC6=O)C7=O)C5)C4)CC3)cc2cc1NC(=O)c1cccc(C(F)(F)F)n1` (stereo partly shown) [I-274], the DC50 lay within 50 to 100 nM.

Consider `COc1cc2nn([C@H]3CC[C@H](CN4CC5(CC(CCNc6cccc7c6C(=O)N(C6CCC(=O)NC6=O)C7=O)C5)C4)CC3)cc2cc1-n1ccc2ccccc2c1=O` (stereo partly shown) [I-286], for which the DC50 fell in the range of 50 to 100 nM.

As for `Cn1c2cc(NC(=O)c3cccc(C(F)(F)F)n3)c(C(C)(C)O)cc2nc1[C@H]1CC[C@H](CN2CC3(CC(CCNc4cccc5c4C(=O)N(C4CCC(=O)NC4=O)C5=O)C3)C2)CC1` (stereo partly shown) [I-287], the DC50 fell in the range of 50 to 100 nM.
